Laboratory results taken from paper doi:10.1101/2021.08.02.454818v1 (biorxiv, 2021).

Target: T1, CdRelQ (Clostridioides difficile, UniProt A0A9R0BI07)
T1 sequence (A0A9R0BI07 1-270): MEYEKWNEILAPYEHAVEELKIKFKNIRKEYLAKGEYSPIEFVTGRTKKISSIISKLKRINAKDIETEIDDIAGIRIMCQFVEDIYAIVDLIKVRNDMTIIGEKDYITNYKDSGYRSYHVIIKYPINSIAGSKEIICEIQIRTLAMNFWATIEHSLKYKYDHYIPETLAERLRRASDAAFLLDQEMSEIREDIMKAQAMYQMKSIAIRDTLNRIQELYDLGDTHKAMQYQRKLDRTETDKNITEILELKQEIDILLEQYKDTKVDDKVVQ
Assay: isothermal titration calorimetry, single-binding-site model

Work on Nc1nc2c(ncn2[C@@H]2O[C@H](COP(=O)(O)OP(=O)(O)O)[C@@H](O)[C@H]2O)c(=O)[nH]1 [GDP] yielded a Kd of 490 µM.
In the case of Nc1nc2c(ncn2[C@@H]2O[C@H](COP(=O)(O)OP(=O)(O)OP(=O)(O)O)[C@@H](O)[C@H]2O)c(=O)[nH]1 [GTP], the Kd is reported as 20.5 µM.
